Measured values published in US11209437B2, “Fluorescent probe and preparation method and use thereof” (Fluorescence Diagnosis (shanghai) Biotech Company Ltd., priority 2016, dated 2021).

Key:
[1] = Viscosity responsiveness: fluorescence emission spectra of probes in glycerol and methanol; format: physicochemical; details: for Emission wavelength: excited at maximum excitation wavelength of each probe; for Fluorescence ratio in glycerol to methanol: probe 1×10^−5 M
Experimental: Probes 1 to 98, 101, 103, 105, 107, 109, 111, 114, 117, and 120, and the reference probes 99, 100, 102, 104, 106, 108, 110, 112, 113, 115, 116, 118, 119, 121, BG-CCVJ and BG-Gly-CCVJ were dissolved in dimethyl sulfoxide, respectively, to prepare mother liquors having a concentration of 1×10^−2 M, to each of which glycerol and methanol were added and uniformly mixed, to prepare solutions finally having a concentration of 1×10^−5 M. Depending on the probes, fluorescence emission spectra of the probes were detected successively with the maximum excitation wavelength of each probe under the same conditions, and the results were shown in Table 1.
That is, these probes are sensitive to viscosity changes and have viscosity responsiveness.

[2] = Fluorescence of free probe prior to binding to a protein tag; format: physicochemical
Experimental: (§1) Probes were mixed with corresponding protein tags to obtain mixed samples, in which the final probe concentration was 5 μM, and the final protein tag concentration was 10 μM. The mixed samples were incubated 37° C. for 1 hr, fluorescence spectrophotometer was used to detect the change in fluorescence intensity, and the results are shown in Table 1.
(§2) From the quantum yield of probe bound to protein tag, after reacting with the protein tags, the probes of the Examples could be detected to have significant signal enhancement in corresponding excitation transmission channels, the fluorescence activation multiple reached several hundreds to a thousand or more, and the brightness was high, which illustrates that after the probes of the Examples are bound to the protein tags, fluorescence of the probes can be activated, and the probes have good fluorescent molecular switching properties. In contrast, though the fluorescence of the reference probes could also be activated, the quantum yield of activated fluorescence was very low, and the brightness was very poor. In particular, in view of comparison results between probe 98 and reference probe 99, probe 101 and reference probe 102, probe 103 and reference probe 104, probe 105 and reference probe 106, probe 107 and reference probe 108, probe 109 and reference probe 110, probe 111 and reference probe 112, probe 114 and reference probe 115, probe 117 and reference probe 118, probe 120 and reference probe 121 in Table 1, for the same fluorescent dye, when the ligand is connected to the electron donor part of the fluorescent dye, the fluorescence activation brightness of the probe is much higher than the reference probe in which ligand is connected to the electron acceptor part of the fluorescent dye.

[3] = target: T1, SNAP protein tags (Homo sapiens, UniProt P16455, A127T/A154D/C150Q/C62A/E30R/G131K/G132T/G153L/K125A/K32I/L33F/M134L/N157G/Q115S/Q116H/R128A/R135S/S151G/S152D/S159E); assay: Fluorescence activation of probe after incubation with corresponding protein tag (SNAP); format: biochemical; details: probe 5 μM, protein tag 10 μM, 37° C., 1 hr
T1 sequence (P16455 1-182 E30R/K32I/L33F/C62A/Q115S/Q116H/K125A/A127T/R128A/G131K/G132T/M134L/R135S/C150Q/S151G/S152D/G153L/A154D/N157G/S159E): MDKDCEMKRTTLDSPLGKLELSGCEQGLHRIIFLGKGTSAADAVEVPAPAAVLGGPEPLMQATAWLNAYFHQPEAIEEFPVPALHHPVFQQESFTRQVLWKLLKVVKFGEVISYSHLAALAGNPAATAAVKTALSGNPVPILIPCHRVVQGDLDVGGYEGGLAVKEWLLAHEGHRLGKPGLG
Experimental: as §1, §2

Compound	Emission wavelength [1]	Fluorescence ratio in glycerol to methanol [1]	Quantum yield of free probe [2]	Fluorescence activation multiple [3]	Quantum yield of probe bound to protein tag [3]
CN(CCO)c1cc2c(s1)-c1sc(/C=C(/C#N)C(=O)NCc3ccc(COc4nc(N)nc5[nH]cnc45)cc3)cc1C2(C)C [Reference Probe 99, reference compound]	649 nm	129	<0.001	53	0.01
CN(C)c1ccc(/C=C(\C#N)C(=O)NCc2ccc(COc3nc(N)nc4[nH]cnc34)cc2)cc1 [Reference Probe 100, reference compound]	480 nm	213	<0.001	43	0.011
CN(CCO)c1ccc(/C=C(\C#N)C(=O)NCc2ccc(COc3nc(N)nc4[nH]cnc34)cc2)cc1 [Reference Probe 102, reference compound]	480 nm	212	<0.001	31	0.02
N#C/C(=C\c1ccc2c(c1)SCCN2CCO)C(=O)NCc1ccc(COc2nc(N)nc3[nH]cnc23)cc1 [Reference Probe 104, reference compound]	515 nm	351	<0.001	23	0.02
CC1=CC(C)(C)N(CCO)c2ccc(/C=C(\C#N)C(=O)NCc3ccc(COc4nc(N)nc5[nH]cnc45)cc3)cc21 [Reference Probe 106, reference compound]	555 nm	215	<0.001	62	0.01
CN(CCO)c1cc2sc(/C=C(\C#N)C(=O)NCc3ccc(COc4nc(N)nc5[nH]cnc45)cc3)cc2s1 [Reference Probe 108, reference compound]	555 nm	329	<0.001	30	0.02
CN(CCO)c1ccc(C#C/C=C(\C#N)C(=O)NCc2ccc(COc3nc(N)nc4[nH]cnc34)cc2)cc1 [Reference Probe 110, reference compound]	567 nm	218	<0.001	23	0.01
CN(CCO)c1ccc2cc(/C=C(\C#N)C(=O)NCc3ccc(COc4nc(N)nc5[nH]cnc45)cc3)sc2c1 [Reference Probe 112, reference compound]	570 nm	211	<0.001	41	0.01
CN(C)c1ccc2nc(/C=C(\C#N)C(=O)NCc3ccc(COc4nc(N)nc5[nH]cnc45)cc3)sc2c1 [Reference Probe 113, reference compound]	625 nm	129	<0.001	36	0.01
